Assay results taken from patent US9920073B2, “Compositions useful for inhibiting HIV-1 infection and methods using same” (Drexel University, priority 2013, dated 2018).
Where two headings read alike, the source gives them in different places.

Tests used:
Assay in all cases: microbe, parasite or virus in culture
Type in all cases: cell-based
[1] = system: amphotropic murine leukemia virus (AMLV); conditions: for IC50: specificity control
HIV-1YU-2 = system: HIV-1YU-2
HIV-1JR-CSF = system: HIV-1JR-CSF
HIV-1HxBc2 = conditions: Human immunodeficiency virus 1, read-out: IC50 HxBc2
[2] = Murine leukemia virus, read-out: IC50 AMLV, Table 2 screening results
[3] = Human immunodeficiency virus 1, read-out: IC50 YU-2, single round infection assay
[4] = read-out: IC50 YU-2, single round infection assay
[5] = read-out: IC50 AMLV, Table 2 screening results
[6] = Human immunodeficiency virus 1, read-out: IC50 JR-CSF
[7] = read-out: IC50 JR-CSF, single round infection assay

| Structure (SMILES) | IC50 [1, 2] [µM] | IC50 (HIV-1YU-2; [3]) [µM] | other results |
| --- | --- | --- | --- |
| O=C(c1ccccn1)N1CCN(S(=O)(=O)c2ccc3ccccc3c2)CC1 [Compound 1] | > 300 | > 300 |  |
| O=C(CCC(=O)N1CCN(C(=O)c2ccccc2)CC1)c1ccc(Cl)s1 [Compound 2] | > 300 | > 300 |  |
| O=C(c1ccccn1)N1CCN(S(=O)(=O)c2ccc3c(c2)OCCO3)CC1 [Compound 3] | > 300 | > 300 |  |
| O=C(c1ccccc1)N1CCN(S(=O)(=O)c2ccc(Cl)c(C(F)(F)F)c2)CC1 [Compound 4] | > 300 | > 300 |  |
| CCc1cc(C(=O)N2CCN(C(=O)c3ccccc3)CC2)sc1C [Compound 5] | > 300 | > 300 |  |
| O=C(COc1cccc(Br)c1)N1CCN(C(=O)c2ccccc2)CC1 [Compound 6] | > 300 | > 300 |  |
| O=C1CSc2ccc(C(=O)N3CCN(C(=O)c4cccs4)CC3)cc2N1 [Compound 7] | > 300 | > 300 |  |
| O=C(c1ccccc1)N1CCN(C(=O)c2ccc3c(c2)CCC3)CC1 [Compound 8] | > 300 | > 300 |  |
| Cc1ccc2nc(C)c(C(=O)N3CCN(C(=O)c4ccccc4)CC3)cc2c1 [Compound 9] | > 300 | > 300 |  |
| Cc1cccc(C(=O)N2CCN(S(=O)(=O)c3ccc(C)c(C)c3)CC2)c1 [Compound 10] | > 300 | > 300 |  |
| O=C(c1ccccc1)N1CCN(C(=O)c2ccc3c4c(cccc24)CC3)CC1 [Compound 11] | > 300 |  | IC50 (HIV-1YU-2; [4]): 15.7 µM |
| O=C(COc1cccc2ccccc12)N1CCN(C(=O)c2ccccc2)CC1 [Compound 12] | > 300 | 53.3 ± 3.7 |  |
| O=C(c1ccccc1)N1CCN(S(=O)(=O)c2ccc3c(c2)CCCC3)CC1 [Compound 13] | 197 | 117 |  |
| O=C(c1cc(-c2ccc(Cl)cc2)on1)N1CCN(S(=O)(=O)c2ccccc2F)CC1 [Compound 14] | > 300 | > 300 |  |
| COc1ccc(Br)cc1C=CC(=O)N1CCC(C(=O)c2ccccc2)CC1 [Compound 15] | 210 | 156 |  |
| O=C(c1ccccc1)N1CCN(C(=O)c2csc(-c3ccccc3)n2)CC1 [Compound 16] | > 300 | > 300 |  |
| Cc1nc2ccc(Cl)cc2cc1C(=O)N1CCN(S(=O)(=O)c2ccccc2)CC1 [Compound 17] | 238 | 193 |  |
| Cc1ccc(C(C)C)c(OCC(=O)N2CCN(C(=O)c3ccccc3)CC2)c1 [Compound 18] |  |  | IC50 [1, 5]: > 300 µM; IC50 (HIV-1YU-2; [4]): > 300 µM |
| O=C(C1=Cc2cc(Br)ccc2OC1)N1CCN(C(=O)c2ccccc2)CC1 [Compound 19] | > 300 | > 300 |  |

| Structure (SMILES) | IC50 [1, 2] [µM] | IC50 (HIV-1YU-2; [3]) [µM] | other results |
| --- | --- | --- | --- |
| Cc1nn(-c2ccccc2)c(C)c1C(=O)C(=O)N1CCN(C(=O)c2ccccc2)CC1 [Compound 20] |  |  | IC50 [1, 5]: > 300 µM; IC50 (HIV-1YU-2; [4]): > 300 µM |
| Cc1c(C)c(C)c(S(=O)(=O)N2CCN(C(=O)c3cccnc3O)CC2)c(C)c1C [Compound 21] | > 300 | > 300 |  |
| CCc1ccc(C(=O)N2CCN(C(=O)c3cc4cc(C)ccc4nc3C)CC2)cc1 [Compound 22] | > 300 | > 300 |  |
| O=C(c1cnccn1)N1CCN(C(=O)c2cc3ccccc3cc2O)CC1 [Compound 24] | > 300 | > 300 |  |
| CC(C(=O)N1CCCc2ccccc21)N1CCN(C(=O)c2ccccc2)CC1 (stereo not shown) [Compound 25] | > 50 | > 50 |  |
| O=C(COc1ncnc2sc(-c3ccccc3)cc12)N1CCN(C(=O)c2ccco2)CC1 [Compound 26] | > 50 | > 50 |  |
| O=C(c1ccccc1)N1CCN(C(=O)c2cc(-c3ccncc3)nc3ccccc23)CC1 [Compound 27] | > 50 | > 50 |  |
| O=C(CSc1ncnc2sccc12)N1CCN(C(=O)c2cccs2)CC1 [Compound 28] | > 50 | 1.6 ± 0.4 |  |
| O=C(c1ccccc1)N1CCN(C(=O)c2ccc(N3CCOCC3)c([N+](=O)[O-])c2)CC1 [Compound 29] | > 50 | > 50 |  |
| O=C(CSc1nnnn1C1CCCC1)N1CCN(C(=O)c2cccs2)CC1 [Compound 30] | > 50 | > 50 |  |
| CCOC(=O)N1CCN(C(=O)C(=O)c2c(C)[nH]c3ccccc23)CC1 [Compound 31] | > 50 | > 50 |  |
| O=C(Cc1cccc2ccccc12)N1CCN(C(=O)c2ccco2)CC1 [Compound 32] | > 50 | 22.8 |  |
| O=C(COc1cccc2ccccc12)N1CCN(C(=O)c2ccccc2F)CC1 [Compound 33] | > 50 | > 50 |  |
| Cc1cc(C)nc(SCC(=O)N2CCN(C(=O)c3ccccc3)CC2)n1 [Compound 34] | > 50 | 19.4 |  |
| Cc1cnc2c(S(=O)(=O)N3CCN(C(=O)c4ccc(C)s4)CC3)cccc2c1 [Compound 35] | > 50 | > 50 |  |
| Cc1nn(-c2ccccc2)c(C)c1C(=O)C(=O)N1CCN(C(=O)c2ccccc2)CC1 [Compound 36] |  |  | IC50 [1, 5]: > 50 µM; IC50 (HIV-1YU-2; [4]): > 50 µM |
| CC(C)n1ncc2c(C(=O)N3CCN(C(=O)c4ccccc4)CC3)cc(-c3ccco3)nc21 [Compound 37] | > 50 | > 50 |  |
| Cc1nn(C)c2nc(-c3cccs3)cc(C(=O)N3CCN(C(=O)c4ccccc4)CC3)c12 [Compound 38] | > 50 | > 50 |  |
| O=C(c1ccco1)N1CCN(C(O)COc2ccc(Cl)cc2[N+](=O)[O-])CC1 (stereo not shown) [Compound 39] | > 50 | > 50 |  |

| Structure (SMILES) | IC50 [1, 2] [µM] | IC50 (HIV-1YU-2; [3]) [µM] | other results |
| --- | --- | --- | --- |
| Cc1[nH]c2ccccc2c1C(=O)C(=O)N1CCC(C(=O)c2ccc(O)cc2)CC1 [Compound 40] | > 50 | > 50 |  |
| O=C(CSC1=Nc2ccccc2CS1)N1CCN(C(=O)c2cccs2)CC1 [Compound 41] | > 50 | > 50 |  |
| COc1ccc(O)cc1NCC(=O)N1CCN(S(=O)(=O)c2ccc3c(c2)CCC3)CC1 [Compound 42] | > 50 | > 50 |  |
| COc1ccc(Cl)cc1C(=O)Cn1c(=O)oc2cc(S(=O)(=O)N3CCOCC3)ccc21 [Compound 43] | > 50 | > 50 |  |
| COc1ccc(OC)c(CCC(=O)N2CCN(C(=O)c3cccc(OC(F)F)c3)CC2)c1 [Compound 44] | > 50 | > 50 |  |
| COc1ccc(OC)c(/C=C/C(=O)N2CCN(C(=O)C3CC3)CC2)c1 [Compound 45] | > 50 | > 50 |  |
| O=C(c1ccccc1)N1CCN(C(=O)c2ccc3noc(-c4ccccc4)c3c2)CC1 [Compound 46] | > 50 | > 50 |  |
| COc1cccc(C(=O)N2CCN(C(=O)COc3cccc4ccccc34)CC2)c1 [Compound 47] | > 50 | > 50 |  |
| CCN(CC)S(=O)(=O)N1CCN(C(=O)C(=O)c2c(C)[nH]c3ccccc23)CC1 [Compound 48] | > 50 | > 50 |  |
| Cc1ccc(C(C)C)c(OCC(=O)N2CCN(C(=O)c3ccccc3)CC2)c1 [Compound 49] |  |  | IC50 [1, 5]: > 50 µM; IC50 (HIV-1YU-2; [4]): > 50 µM |
| COc1ccc(C(=O)N2CCN(C(=O)COc3cccc4ccccc34)CC2)cc1 [Compound 50] | > 50 | > 50 |  |
| O=C(c1ccccc1)N1CCN(C(=O)c2ccc3c4c(cccc24)CC3)CC1 [SC03, (4-benzoylpiperazin-1-yl)(1,2-dihydroacenaphthylen-5-yl)methanone] |  | 13.1 ± 1.7 | IC50 (HIV-1JR-CSF; [6]): 420 ± 280 nM |
| O=C(c1ccccc1)N1CC2CN(C(=O)c3ccc4c5c(cccc35)CC4)CC2C1 (stereo not shown) [SC04, (5-benzoylhexahydropyrrolo[3,4-c]pyrrol-2(1H)-yl)(1,2-dihydroacenaphthylen-5-yl)methanone] |  | 70 ± 6 | IC50 (HIV-1JR-CSF; [7]): 100000 ± 30000 nM |
| COc1ncc(OC)c2c(C(=O)C(=O)N3CC4CCC(c5ccccc5)C4C3)c[nH]c12 (stereo not shown) [SC10, 1-(4,7-dimethoxy-1H-pyrrolo[2,3-c]pyridin-3-yl)-2-(4-phenylhexahydrocyclopenta[c]pyrrol-2(1H)-yl)ethane-1,2-dione] |  |  | IC50 (HIV-1JR-CSF; [6]): 420 ± 110 nM; IC50 (HIV-1HxBc2): 4.81 ± 4.1 µM |
| COc1cnc(-n2cnc(C)n2)c2[nH]cc(C(=O)C(=O)N3CC4CN(C(=O)c5ccccc5)CC4C3)c12 (stereo not shown) [SC11, 1-(5-benzoylhexahydropyrrolo[3,4-c]pyrrol-2(1H)-yl)-2-(4-methoxy-7-(3-methyl-1H-1,2,4-triazol-1-yl)-1H-pyrrolo[2,3-c]pyridin-3-yl)ethane-1,2-dione] |  |  | specificity to HIV-1 (inhibition of AMLV-pseudotyped HIV-1) ([1]; single round infection assay, in words): retaining HIV-1 specificity; IC50 (HIV-1JR-CSF; [7]): 0.8 ± 0.4 nM |
| COc1cnc(-n2cnc(C)n2)c2[nH]cc(C(=O)C(=O)N3CC4C=NN(c5cccc(C)n5)C4C3)c12 (stereo not shown) [SC24, 1-(4-methoxy-7-(3-methyl-1H-1,2,4-triazol-1-yl)-1H-pyrrolo[2,3-c]pyridin-3-yl)-2-(1-(6-methylpyridin-2-yl)-3a,4,6,6a-tetrahydropyrrolo[3,4-c]pyrazol-5(1H)-yl)ethane-1,2-dione] |  |  | IC50 (HIV-1JR-CSF; [6]): 700 ± 400 nM |
| O=C(C(=O)N1CC2C=NN(c3ccccc3)C2C1)c1c[nH]c2c(-n3ccnn3)ncc(F)c12 (stereo not shown) [SC38, 1-(4-fluoro-7-(1H-1,2,3-triazol-1-yl)-1H-pyrrolo[2,3-c]pyridin-3-yl)-2-(1-phenyl-3a,4,6,6a-tetrahydropyrrolo[3,4-c]pyrazol-5(1H)-yl)ethane-1,2-dione] |  |  | IC50 (HIV-1HxBc2): 0.008 ± 0.003 µM |
| Cc1ncn(-c2ncc(F)c3c(C(=O)C(=O)N4CC5C=NN(c6nnnn6-c6ccccc6)C5C4)c[nH]c23)n1 (stereo not shown) [SC39, 1-(4-fluoro-7-(3-methyl-1H-1,2,4-triazol-1-yl)-1H-pyrrolo[2,3-c]pyridin-3-yl)-2-(1-(1-phenyl-1H-tetrazol-5-yl)-3a,4,6,6a-tetrahydropyrrolo[3,4-c]pyrazol-5(1H)-yl)ethane-1,2-dione] |  |  | IC50 (HIV-1HxBc2): 35.3 ± 9.3 µM |
